From ChEMBL document CHEMBL1201862, “PubChem BioAssay data set” (2004)
Active and inactive are the calls of the source. Cut-off read from the data, not from the text of the source, for most assays here: active = IC50 of 10 µM or less and inactive = more.

Tests used:
Format in all cases: functional
[1] = molecular target: DNA dC->dU-editing enzyme APOBEC-3A (Homo sapiens, UniProt P31941); assay: SAR analysis of small molecule inhibitors of APOBEC3A DNA Deaminase via a fluorescence-based single-stranded DNA deaminase assay.; details: read-out: IC50_Mean
Sequence of DNA dC->dU-editing enzyme APOBEC-3A (P31941 whole entry): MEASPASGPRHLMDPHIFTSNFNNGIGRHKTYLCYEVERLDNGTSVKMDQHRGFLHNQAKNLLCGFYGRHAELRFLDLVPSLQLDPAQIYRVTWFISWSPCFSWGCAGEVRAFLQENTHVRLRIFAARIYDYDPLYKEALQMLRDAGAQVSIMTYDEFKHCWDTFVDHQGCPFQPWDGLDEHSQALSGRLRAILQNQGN

[2] = molecular target: DNA dC->dU-editing enzyme APOBEC-3G (Homo sapiens, UniProt Q9HC16); assay: APOBEC3G deaminase inhibitors, SAR follow-up, biochemical, fluorescence, single-stranded DNA substrate (AID 602136); details: read-out: IC50_Mean
Sequence of DNA dC->dU-editing enzyme APOBEC-3G (Q9HC16 whole entry): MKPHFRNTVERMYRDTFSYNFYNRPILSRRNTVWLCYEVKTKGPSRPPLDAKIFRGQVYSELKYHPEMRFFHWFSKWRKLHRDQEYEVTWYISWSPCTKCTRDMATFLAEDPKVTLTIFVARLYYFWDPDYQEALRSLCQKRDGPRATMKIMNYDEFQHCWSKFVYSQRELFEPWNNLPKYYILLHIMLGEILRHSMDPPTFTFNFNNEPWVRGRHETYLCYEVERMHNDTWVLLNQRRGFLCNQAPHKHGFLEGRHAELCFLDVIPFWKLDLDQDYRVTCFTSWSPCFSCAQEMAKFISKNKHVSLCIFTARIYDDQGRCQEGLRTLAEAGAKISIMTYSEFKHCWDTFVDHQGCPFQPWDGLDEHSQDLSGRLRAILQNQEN

[3] = molecular target: DNA (cytosine-5)-methyltransferase 1 (Homo sapiens, UniProt P26358); assay: DNMT1 methyltransferase inhibitors, confirmation, biochemical, fluorescent molecular beacon (AID 602386)
Sequence of DNA (cytosine-5)-methyltransferase 1 (P26358 whole entry): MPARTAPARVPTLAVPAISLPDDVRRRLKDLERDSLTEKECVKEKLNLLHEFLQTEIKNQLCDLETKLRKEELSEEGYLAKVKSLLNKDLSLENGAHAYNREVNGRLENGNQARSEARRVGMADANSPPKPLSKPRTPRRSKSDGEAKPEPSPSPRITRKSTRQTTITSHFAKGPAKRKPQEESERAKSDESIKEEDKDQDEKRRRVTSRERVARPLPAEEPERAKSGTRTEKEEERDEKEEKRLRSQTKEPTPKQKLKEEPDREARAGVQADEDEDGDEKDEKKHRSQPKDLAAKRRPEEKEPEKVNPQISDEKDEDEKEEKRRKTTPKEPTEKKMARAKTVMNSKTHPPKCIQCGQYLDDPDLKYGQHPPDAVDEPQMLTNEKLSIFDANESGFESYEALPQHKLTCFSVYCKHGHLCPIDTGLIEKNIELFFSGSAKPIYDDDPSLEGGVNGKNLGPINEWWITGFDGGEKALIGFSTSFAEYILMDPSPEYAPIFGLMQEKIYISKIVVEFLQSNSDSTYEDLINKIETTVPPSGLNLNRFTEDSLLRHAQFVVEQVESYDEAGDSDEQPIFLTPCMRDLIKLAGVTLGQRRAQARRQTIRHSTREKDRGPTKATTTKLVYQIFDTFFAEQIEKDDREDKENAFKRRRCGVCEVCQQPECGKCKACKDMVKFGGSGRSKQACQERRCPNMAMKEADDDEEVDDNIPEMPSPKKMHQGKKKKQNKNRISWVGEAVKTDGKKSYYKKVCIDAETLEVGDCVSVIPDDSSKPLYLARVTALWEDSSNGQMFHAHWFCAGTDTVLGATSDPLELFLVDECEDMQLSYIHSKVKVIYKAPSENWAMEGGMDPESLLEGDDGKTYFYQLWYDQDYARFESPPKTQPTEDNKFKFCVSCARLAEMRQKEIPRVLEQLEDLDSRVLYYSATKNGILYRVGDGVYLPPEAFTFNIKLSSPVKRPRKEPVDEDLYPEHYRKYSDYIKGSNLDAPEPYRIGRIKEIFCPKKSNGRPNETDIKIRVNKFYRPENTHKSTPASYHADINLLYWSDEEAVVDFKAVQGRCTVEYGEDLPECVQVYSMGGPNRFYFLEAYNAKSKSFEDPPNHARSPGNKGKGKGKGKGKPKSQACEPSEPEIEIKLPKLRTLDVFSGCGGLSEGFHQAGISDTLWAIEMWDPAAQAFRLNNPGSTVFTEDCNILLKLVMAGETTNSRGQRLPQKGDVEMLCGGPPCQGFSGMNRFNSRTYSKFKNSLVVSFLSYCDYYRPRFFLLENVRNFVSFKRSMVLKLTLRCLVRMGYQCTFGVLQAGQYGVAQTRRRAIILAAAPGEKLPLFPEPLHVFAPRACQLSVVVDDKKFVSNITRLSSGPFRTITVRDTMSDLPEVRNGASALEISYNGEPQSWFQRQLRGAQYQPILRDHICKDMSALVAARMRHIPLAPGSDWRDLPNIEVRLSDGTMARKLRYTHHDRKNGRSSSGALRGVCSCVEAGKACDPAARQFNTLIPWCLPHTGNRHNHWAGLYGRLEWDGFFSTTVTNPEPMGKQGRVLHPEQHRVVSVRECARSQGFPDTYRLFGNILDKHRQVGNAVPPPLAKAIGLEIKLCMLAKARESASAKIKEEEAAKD

Row | IC50 [3] | SMILES | IC50 [1] | IC50 [2]
1 |  | Cc1ccc(Cl)c2c1N[C@@H](c1ccccc1Br)[C@H]1CC=C[C@@H]21 | > 99 µM (inactive) | > 99 µM (inactive)
2 |  | CCc1ccc(Nc2nc(Nc3ccc(OC)cc3)nc(N3CCCC3)n2)cc1 | > 99 µM (inactive) | > 99 µM (inactive)
3 | > 99 µM (inactive) | Cc1ccc2cc3c(N)c4c(C)ccc(C)c4nc3nc2c1 |  | 
